Source: ChEMBL document CHEMBL1201862, “PubChem BioAssay data set” (2004)
“And” between values parts separate entries of the source, which are not always exact repeats. Equal values may be shown once.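 Five concentrations, 48 hours, 96-well plates. The concentration for 50% growth inhibition is given as GI50.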 The source made the active and inactive calls. No stated cut-off is given here; in the data, active = GI50 up to about 1.1 µM and inactive = higher.

How the values were obtained:
Test in all cases: NCI anticancer screen, dose series, 48 h
[1] = system: HT-29
[2] = system: SW-620
[3] = system: COLO 205
[4] = system: SF-539
[5] = system: HCC 2998
[6] = system: MDA-MB-231
[7] = system: NCI-H460
[8] = system: UO-31
[9] = system: OVCAR-4
[10] = system: A498
[11] = system: HCT-116
[12] = system: NCI-H522
[13] = system: DU-145
[14] = system: IGROV-1
[15] = system: MCF7
[16] = system: HL-60
[17] = system: OVCAR-8
[18] = system: HCT-15
[19] = system: HOP-92
[20] = system: SR

Measured: GI50

Nc1nc2c(c(-c3cccc(Cl)c3)n1)COC/C2=C\c1cccc(Cl)c1
inactive: [1] > 100 µM | [2] > 100 µM | [3] > 100 µM | [4] > 100 µM | [5] 56.8 µM | [6] 52.7 µM | [7] > 100 µM | [8] 25 µM | [9] > 100 µM | [10] > 100 µM | [11] > 100 µM | [12] > 100 µM | [13] 80.2 µM | [14] 94.2 µM | [15] > 100 µM | [16] > 100 µM | [17] > 100 µM | [19] > 100 µM
> 100 µM: [18]

C#CC(O)/C=C/C(O)CCCC(O)CC#CC(O)C#CCCCCC(O)/C=C/CCCC(=O)CCCCCCCCCCCCCCCC(O)C(O)C#CC(=O)O (configuration not stated)
inactive: [1] > 25 µM | [3] > 25 µM | [5] > 25 µM | [6] > 25 µM | [7] > 25 µM | [8] > 25 µM | [9] > 25 µM | [11] > 25 µM | [12] 6.28 µM | [13] > 25 µM | [14] 8.55 µM | [15] > 25 µM | [16] > 25 µM | [17] > 25 µM | [20] > 25 µM | [19] > 25 µM
> 25 µM: [18]

COc1ccc2nc3cccc([N+](=O)[O-])c3c(NCCN(C)C)c2c1
0.0716 µM: [18]
active: [1] 0.0573 µM | [2] 0.14 µM | [3] 0.0284 µM | [4] 0.147 µM | [5] 0.0605 µM | [6] 0.156 µM | [7] 0.0165 µM | [8] 0.176 µM | [9] 0.116 µM | [10] 0.17 µM | [11] 0.0251 µM | [12] 0.0209 µM | [13] 0.0223 µM | [14] 0.167 µM | [15] 0.0555 µM | [17] 0.0638 µM | [19] 0.057 µM

C[C@]12c3c4cc(NC(=O)C(=O)NCc5ccc(-c6ccccn6)nc5)cc3Oc3cc(NC(=O)C(=O)NCc5ccc(-c6ccccn6)nc5)cc(c31)OC1C=C(NC(=O)C(=O)NCc3ccc(-c5ccccn5)nc3)C=C(O4)C12 (some centres not stated)
inactive: [1] 12.1 µM | [2] > 100 µM | [3] 23.1 µM | [4] 29.3 µM | [6] 9.59 µM | [7] 17.1 µM | [8] 22.3 µM | [9] 3.47 µM | [11] 29.2 µM | [12] 66.5 µM | [13] 18.8 µM | [14] 16.9 µM | [15] 33.7 µM | [16] 14.6 µM | [17] 21.9 µM | [20] 3.83 µM
27.8 µM: [18]

N#C[BH2-][n+]1ccc(C(=O)NNC(c2ccccc2)C(F)(F)F)cc1 (configuration not stated)
> 100 µM: [18]
active: [19] 1 µM
inactive: [1] > 100 µM | [2] > 100 µM | [3] > 100 µM | [4] > 100 µM | [5] > 100 µM | [6] > 100 µM | [7] > 100 µM | [9] > 100 µM | [11] > 100 µM | [12] 68.9 µM | [13] > 100 µM | [14] > 100 µM | [15] > 100 µM | [16] > 100 µM | [17] > 100 µM | [20] > 100 µM

COc1ccccc1[S+]([O-])Nc1ccccc1 (configuration not stated)
22.8 µM: [18]
inactive: [1] 50.9 µM | [2] 30.7 µM | [3] > 100 µM | [4] 25.3 µM | [5] 83.2 µM | [6] > 100 µM | [7] 88.1 µM | [8] 33.6 µM | [9] > 100 µM | [11] 51.1 µM | [12] 38.2 µM | [13] > 100 µM | [14] 37.2 µM | [15] > 100 µM | [16] 82.8 µM | [17] > 100 µM | [20] 21.6 µM

CCOC(=O)C(NCc1ccccc1)(NC(=O)c1ccccc1)C(F)(F)F (configuration not stated)
78.3 µM: [18]
inactive: [1] > 100 µM | [2] 43.6 µM | [3] > 100 µM | [4] > 100 µM | [5] > 100 µM | [6] 21.4 µM | [8] 46.6 µM | [9] 45.3 µM | [11] > 100 µM | [12] 35.6 µM | [13] > 100 µM | [14] > 100 µM | [15] > 100 µM | [16] 29 µM | [17] 98.9 µM | [20] 32.1 µM | [19] 42.3 µM

CC(C)[C@H](NC(=O)[C@H](N)Cc1ccc(N(CCCl)CCCl)cc1)C(=O)O
> 100 µM: [18]
inactive: [1] > 100 µM | [2] > 100 µM | [3] > 100 µM | [5] > 100 µM | [6] > 100 µM | [7] > 100 µM | [8] > 100 µM | [9] > 100 µM | [10] > 100 µM | [11] > 100 µM | [12] > 100 µM | [13] > 100 µM | [14] > 100 µM | [15] > 100 µM | [16] > 100 µM | [17] > 100 µM | [19] 9.82 µM

CC1CCC2(C(=O)O)CCC3(C)C(=CCC4C5(C)CCC(O)C(C)(C)C5CCC43C)C2C1C (configuration not stated)
inactive: [1] 20.7 µM and 11 µM | [3] 13.7 µM and 14.7 µM | [4] 13.4 µM and 11 µM | [5] 11.1 µM and 10.6 µM | [6] 12.5 µM | [7] 12.4 µM | [8] 6.75 µM and 4.07 µM | [9] 17.3 µM and 13.3 µM | [11] 14.4 µM and 7.28 µM | [13] 9.16 µM | [14] 13.4 µM and 18.2 µM | [15] 12.7 µM and 22 µM | [16] 3.05 µM and 2.64 µM | [17] 13.8 µM and 8.3 µM | [20] 19.5 µM | [19] 18.4 µM and 11.9 µM

O=C(NN1C(=O)CSC1c1ccco1)c1ccncc1 (configuration not stated)
> 100 µM: [18]
inactive: [1] > 100 µM | [2] > 100 µM | [3] > 100 µM | [4] > 100 µM | [5] > 100 µM | [6] > 100 µM | [7] > 100 µM | [8] > 100 µM | [9] > 100 µM | [10] > 100 µM | [11] > 100 µM | [12] > 100 µM | [13] > 100 µM | [14] > 100 µM | [15] > 100 µM | [16] > 100 µM | [17] > 100 µM | [19] > 100 µM

COCOc1ccc(C(=O)Oc2cccc3c2OC(C)(C)O3)c(OCOC)c1
83.4 µM: [18]
inactive: [1] > 100 µM | [2] 43.2 µM | [3] > 100 µM | [4] 37.7 µM | [5] 62.7 µM | [6] 15.7 µM | [7] 56 µM | [8] 71.1 µM | [10] > 100 µM | [11] > 100 µM | [13] > 100 µM | [14] > 100 µM | [15] 33.2 µM | [17] > 100 µM | [19] > 100 µM
active: [16] 0.0181 µM

O=C(C[C@@H]1CCCN2CCCC[C@H]12)N1c2ccccc2Sc2ccc(Cl)cc21
15.7 µM: [18]
inactive: [1] 10.6 µM | [2] 13.9 µM | [3] 11.9 µM | [4] 16.6 µM | [6] 14.7 µM | [7] 14.7 µM | [8] 12.9 µM | [11] 16 µM | [12] 13.5 µM | [13] 14 µM | [14] 12.6 µM | [15] 18.2 µM | [16] 14.5 µM | [17] 19.3 µM | [20] 19.3 µM

Cc1cc2c(cc1Cl)Sc1nnc(C)n1S2(=O)=O
11.2 µM: [18]
inactive: [1] 18.5 µM | [2] 15.4 µM | [3] 15.2 µM | [4] 17.9 µM | [5] 17.7 µM | [6] 11.7 µM | [7] 23.7 µM | [8] 10.6 µM | [9] 12.5 µM | [10] 14.8 µM | [11] 16.1 µM | [12] 8.69 µM | [13] 22 µM | [14] 12.3 µM | [15] 4.44 µM | [16] 6.78 µM | [17] 17.5 µM | [19] 2.84 µM

O=C(Cn1cc(-c2ccccc2)nn1)NC1CCCC1
> 100 µM: [18]
inactive: [1] > 100 µM | [2] > 100 µM | [3] > 100 µM | [4] > 100 µM | [5] > 100 µM | [6] > 100 µM | [7] > 100 µM | [9] > 100 µM | [11] > 100 µM | [12] > 100 µM | [13] > 100 µM | [14] > 100 µM | [15] > 100 µM | [16] > 100 µM | [17] > 100 µM | [20] > 100 µM | [19] > 100 µM

CCc1cc2c(cc1C(=O)CCC(=O)O)CC1(C2)Cc2cc(CC)c(C(=O)CCC(=O)O)cc2C1
inactive: [1] > 100 µM | [2] > 100 µM | [3] > 100 µM | [4] > 100 µM | [5] > 100 µM | [6] > 100 µM | [7] > 100 µM | [8] > 100 µM | [9] > 100 µM | [10] > 100 µM | [11] > 100 µM | [12] > 100 µM | [13] > 100 µM | [14] > 100 µM | [15] > 100 µM | [16] > 100 µM | [17] > 100 µM | [19] > 100 µM
> 100 µM: [18]
